Measured values taken from ChEMBL document CHEMBL1137120, “Synthesis and biological evaluation of flavonoids as vasorelaxant agents” (2004).

Species on record: Rattus norvegicus
Assay: Tested for vasorelaxant activity in rat thoracic aorta rings against PE-induced contractions
Type: functional

Work on `O=c1cc(-c2ccc(O)c(O)c2)oc2cc(O)cc(O)c12` [LUTEOLIN] yielded a Maximal relaxation of 70.2%.
For `O=c1c(O[C@@H]2OC[C@@H](O)[C@@H](O)[C@H]2O)c(-c2ccc(O)c(O)c2)oc2cc(O)cc(O)c12`, the Maximal relaxation was 35.1%.
In the case of `O=c1cc(-c2ccc3c(c2)OCO3)oc2cc(O)cc(O)c12`, the Maximal relaxation is reported as 91.3%.
In the case of `O=c1c(O[C@@H]2OC[C@@H](O)[C@H](O)[C@@H]2O)c(-c2ccc(O)c(O)c2)oc2cc(O)cc(O)c12`, the Maximal relaxation is reported as 24.7%.
`O=c1cc(-c2cccc(Br)c2)oc2cc(O)cc(O)c12` was tested, and the Maximal relaxation was 95%.
With `C[C@@H]1O[C@@H](OC[C@H]2O[C@@H](Oc3c(-c4ccc(O)c(O)c4)oc4cc(O)cc(O)c4c3=O)C(O)[C@@H](O)[C@@H]2O)[C@H](O)[C@H](O)[C@H]1O` (single isomer, unassigned) [RUTIN] the Maximal relaxation was 24.7%.
In the case of `Cc1c(O)c(C)c2c(c1O)C(=O)C(O)C(c1ccc(O)cc1)O2` (centres undefined), the Maximal relaxation is reported as 64.4%.
With `O=c1c(O[C@@H]2O[C@H](CO)C(O)C(O)[C@H]2O)c(-c2ccc(O)c(O)c2)oc2cc(O)cc(O)c12` (single isomer, unassigned) [ISOQUERCETIN] the Maximal relaxation was 34%.
Compound `O=c1cc(-c2ccccc2)oc2cc(O[C@@H]3O[C@H](CO)[C@@H](O)C(O)[C@H]3O)c(O)c(O)c12` (single isomer, unassigned) has a Maximal relaxation of 36.2%.
`COCOc1c(-c2ccc(O)c(O)c2)oc2cc(O)cc(O)c2c1=O` gave a Maximal relaxation of 71.6%.
With `O=c1cc(-c2ccc(Cl)cc2)oc2cc(O)cc(O)c12` the Maximal relaxation was 92.7%.
`O=c1c(O)c(-c2ccc(O)c(O)c2)oc2cc(O)cc(O)c12` [QUERCETIN] gave a Maximal relaxation of 45.9%.
`COc1cccc(-c2cc(=O)c3c(O)cc(O)cc3o2)c1` showed a Maximal relaxation of 80.8%.
`Cc1ccc(-c2cc(=O)c3c(O)cc(O)cc3o2)cc1` showed a Maximal relaxation of 77.2%.
